# In patent publication US10849907B2, “Imidazopyridine derivatives and the use thereof as medicament” (Boehringer Ingelheim International GmbH, priority 2017, dated 2020):
# Columns and labels:
# [1] = biological target: T1, NMDA NR1/NR2B receptor (Homo sapiens, UniProt Q05586+Q13224); assay: In vitro NMDA NR1/NR2b cell assay (FLIPR, intracellular calcium induced by glycine/glutamate); type: cell-based; settings: HEK293 cells expressing NMDA NR1/NR2B, 20 μM glycine, 1 μM glutamate, compounds of the invention (Table 1)
# T1 construct: host or cells: HEK293, tetracycline-inducible expression
# Protocol: A human HEK293 cell line with tetracyclin-inducible expression of NMDA NR1/NR2B receptor was used as a test system for compound efficacy and potency. The cell line was purchased from ChanTest, Catalog # CT6121. Compound activity was determined by measuring the effect of compounds on intracellular calcium concentration induced by glycine/glutamate agonism in a FLIPRtetra system (Molecular Devices).
# The cells were obtained as frozen cells in cryo-vials and stored until use at −150° C. Cells were grown in culture medium (DMEM/F12, 10% FBS, 5 μg/mL Blasticidin, 150 μg/mL Zeozin, 500 μg/mL Geneticin). […] For sub-culturing the cells were detached from flasks by Versene. For the assay, cells were detached, washed twice with induction medium (DMEM/F12 without glutamine, 10% FBS, 2 μg/mL Tetracycline, 2 mM Ketamine) and seeded to 384 well pure coat amine plates (BD 359324, 50000 cells per well in 50 μl) 48 h prior to assay in induction medium.
# The test compounds were dissolved in 100% DMSO at a concentration of 10 mM and in a first step diluted in DMSO to a concentration of 5 mM, followed by serial dilution steps in 100% DMSO. Dilution factor and number of dilution steps may vary according to needs. Typically 8 different concentrations by 1:5 dilutions were prepared in duplicate, further intermediate dilutions (1:37.5) of the substances were carried out with aqueous assay buffer (137 mM NaCl, 4 mM KCl, 1.8 mM CaCl, 10 mM HEPES, 10 mM Glucose, pH 7.4) resulting in a compound concentration 3 times above the final test concentration and DMSO at 2.7% resulting in 0.9% final DMSO concentration in the assay.
# At the assay day cells were washed 3× with assay puffer, 10 μL buffer remained in the wells after washing. 10 μL Ca kit loading buffer (AAT Bioquest) was added to the cells and the plates were incubated with lid for 60 minutes at r.t. 20 μl assay buffer containing 60 μM glycine (20 μM final) and 3 μM glutamate (1 μM final) was added to column 1-23. Fluorescence (indicating the calcium influx as a result of the NR1/NR2B ion channel activation) was read on the FLIPRtetra device for 60 seconds to monitor the glutamate induced effects. After 2 minutes 20 μL of compound or controls (row 1-22) in assay buffer were carefully added to the wells. […] The average of 2 measurements at 5 minutes and 5 min 10 seconds after compound addition is calculated and further used for IC50 calculations. Each assay microtiter plate contained wells (in column 23 or 24) with DMSO controls instead of compound as controls for glycine/glutamate induced fluorescence (high controls) and wells with 1 μM of a reference NR2b NAM as low controls (Compound 22; reference: Layton, Mark E et al, ACS Chemical Neuroscience 2011, 2(7), 352-362).
# The output file of the reader contains the well number and measured average fluorescence units. For data evaluation and calculation, the measurement of the low control was set as 0% control and the measurement of the high control was set as 100% control. The IC50 values were calculated using the standard 4 parameter logistic regression formula. Calculation: [y=(a−d)/(1+(x/c)^b)+d], a=low value, d=high value; x=conc M; c=IC50 M; b=slope.
# [2] = Metabolic stability in pooled human liver microsomes; type: in vitro ADME; settings: pH 7.6; pooled human liver microsomes 1 mg/mL, 1 μM compound, 37° C., NADPH; read-out: Half-life - t½ human liver microsomes
# Description: Stability in human liver microsomes refers to the susceptibility of compounds to biotransformation in the context of selecting and/or designing drugs with favorable pharmacokinetic properties. The primary site of metabolism for many drugs is the liver. Human liver microsomes contain the cytochrome P450s (CYPs), and thus represent a model system for studying drug metabolization in vitro. Enhanced stability in human liver microsomes is associated with several advantages, including increased bioavailability and adequate half-life, which can enable lower and less frequent dosing of patients. Thus, enhanced stability in human liver microsomes is a favorable characteristic for compounds that are to be used for drugs.
# The metabolic degradation of the test compound was assayed at 37° C. with pooled human liver microsomes. The final incubation volume of 60 μl per time point contains TRIS buffer pH 7.6 at room temperature (0.1 M), magnesium chloride (5 mM aqueous solution), microsomal protein (1 mg/mL for human) and the test compound at a final concentration of 1 μM. Following a short preincubation period at 37° C., the reactions were initiated by addition of betanicotinamide adenine dinucleotide phosphate, reduced form (NADPH, 1 mM), and terminated by transferring an aliquot into solvent after different time points. After centrifugation (10000 g, 5 min), an aliquot of the supernatant was assayed by LC-MS/MS for the amount of parent compound. The half-life was determined by the slope of the semi-logarithmic plot of the concentration-time profile.
# T1 sequence (Q13224 27-1484, other chains not shown): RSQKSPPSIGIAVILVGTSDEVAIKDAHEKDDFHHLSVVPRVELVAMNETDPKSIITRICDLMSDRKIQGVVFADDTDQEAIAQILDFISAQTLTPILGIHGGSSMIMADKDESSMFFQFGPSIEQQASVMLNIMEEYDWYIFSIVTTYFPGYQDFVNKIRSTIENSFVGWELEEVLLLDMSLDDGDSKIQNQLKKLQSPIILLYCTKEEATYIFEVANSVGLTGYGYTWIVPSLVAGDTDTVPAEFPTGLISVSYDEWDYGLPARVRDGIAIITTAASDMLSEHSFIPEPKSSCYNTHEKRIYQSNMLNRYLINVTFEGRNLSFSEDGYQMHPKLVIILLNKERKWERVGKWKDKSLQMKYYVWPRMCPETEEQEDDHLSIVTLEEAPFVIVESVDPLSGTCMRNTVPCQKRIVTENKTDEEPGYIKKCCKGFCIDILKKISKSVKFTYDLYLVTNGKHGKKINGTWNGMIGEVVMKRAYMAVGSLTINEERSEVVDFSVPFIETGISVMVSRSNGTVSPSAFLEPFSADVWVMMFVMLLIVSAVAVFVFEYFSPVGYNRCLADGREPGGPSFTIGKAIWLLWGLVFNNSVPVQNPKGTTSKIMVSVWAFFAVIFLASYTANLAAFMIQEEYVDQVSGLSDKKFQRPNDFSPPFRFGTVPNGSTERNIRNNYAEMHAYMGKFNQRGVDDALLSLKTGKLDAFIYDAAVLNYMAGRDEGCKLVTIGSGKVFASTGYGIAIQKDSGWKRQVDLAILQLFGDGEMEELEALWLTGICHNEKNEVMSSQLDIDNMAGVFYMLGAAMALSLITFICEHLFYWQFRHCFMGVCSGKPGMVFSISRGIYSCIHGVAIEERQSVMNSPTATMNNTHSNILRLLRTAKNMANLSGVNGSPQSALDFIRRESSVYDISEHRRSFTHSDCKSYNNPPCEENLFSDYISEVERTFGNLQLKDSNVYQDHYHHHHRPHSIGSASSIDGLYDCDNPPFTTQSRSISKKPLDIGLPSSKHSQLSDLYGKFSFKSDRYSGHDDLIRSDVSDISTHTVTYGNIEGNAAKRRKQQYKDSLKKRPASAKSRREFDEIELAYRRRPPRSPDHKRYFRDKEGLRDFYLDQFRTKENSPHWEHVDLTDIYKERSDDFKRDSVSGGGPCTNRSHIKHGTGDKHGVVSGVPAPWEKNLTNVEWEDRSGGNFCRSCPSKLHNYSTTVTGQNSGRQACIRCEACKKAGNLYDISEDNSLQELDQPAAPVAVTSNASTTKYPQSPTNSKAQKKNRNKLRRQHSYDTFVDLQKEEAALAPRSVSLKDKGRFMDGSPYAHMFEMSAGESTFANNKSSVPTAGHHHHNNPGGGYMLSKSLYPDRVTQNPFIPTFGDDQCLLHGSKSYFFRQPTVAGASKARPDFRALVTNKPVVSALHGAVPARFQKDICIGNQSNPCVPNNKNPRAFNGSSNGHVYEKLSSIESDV
structure (smiles),measurement,setting,value
O=C(OCc1cccc(F)c1)N1CCO[C@H](c2nc3cccnc3[nH]2)C1 [Example 1],IC50,[1],409 nM
same,half-life at 1 µM,[2],38 min
O=C(OCc1ccc(F)cc1)N1CCO[C@H](c2nc3cccnc3[nH]2)C1 [Example 2],IC50,[1],83 nM
same,half-life at 1 µM,[2],76 min
Cc1ccccc1COC(=O)N1CCO[C@H](c2nc3cccnc3[nH]2)C1 [Example 8],IC50,[1],404 nM
same,half-life at 1 µM,[2],14 min
Cc1cccc(F)c1COC(=O)N1CCO[C@H](c2nc3cccnc3[nH]2)C1 [Example 10],IC50,[1],156 nM
same,half-life at 1 µM,[2],12 min
Cc1ccc(COC(=O)N2CCO[C@H](c3nc4cccnc4[nH]3)C2)c(F)c1 [Example 11],IC50,[1],55 nM
same,half-life at 1 µM,[2],24 min
Cc1ccc(COC(=O)N2CCO[C@H](c3nc4cccnc4[nH]3)C2)cc1F [Example 12],IC50,[1],73 nM
same,half-life at 1 µM,[2],36 min
O=C(OCc1ccc(F)cc1Cl)N1CCO[C@H](c2nc3cccnc3[nH]2)C1 [Example 13],IC50,[1],122 nM
same,half-life at 1 µM,[2],37 min
O=C(OCc1ccccc1Cl)N1CCO[C@H](c2nc3cccnc3[nH]2)C1 [Example 14],IC50,[1],121 nM
same,half-life at 1 µM,[2],27 min
O=C(OCc1cccc(F)c1F)N1CCO[C@H](c2nc3cccnc3[nH]2)C1 [Example 15],IC50,[1],93 nM
same,half-life at 1 µM,[2],86 min
O=C(OCc1c(F)cccc1F)N1CCO[C@H](c2nc3cccnc3[nH]2)C1 [Example 16],IC50,[1],104 nM
same,half-life at 1 µM,[2],> 130 min
O=C(OCc1ccccc1)N1CCO[C@H](c2nc3cccnc3[nH]2)C1 [Example 17],IC50,[1],76 nM
same,half-life at 1 µM,[2],> 130 min
Cc1ccc(COC(=O)N2CCO[C@H](c3nc4cccnc4[nH]3)C2)cc1 [Example 18],IC50,[1],54 nM
same,half-life at 1 µM,[2],51 min
O=C(OCc1ccc(F)cc1F)N1CCO[C@H](c2nc3cccnc3[nH]2)C1 [Example 19],IC50,[1],128 nM
same,half-life at 1 µM,[2],130 min
O=C(OCc1ccc(C(F)F)cc1)N1CCO[C@H](c2nc3cccnc3[nH]2)C1 [Example 26],IC50,[1],78 nM
same,half-life at 1 µM,[2],> 130 min
O=C(OCc1ccccc1F)N1CCO[C@H](c2nc3cccnc3[nH]2)C1 [Example 27],IC50,[1],95 nM
same,half-life at 1 µM,[2],130 min
O=C(OCc1ccc(Cl)cc1)N1CCO[C@H](c2nc3cccnc3[nH]2)C1 [Example 28],IC50,[1],42 nM
same,half-life at 1 µM,[2],> 130 min
Cc1ccc(COC(=O)N2CCO[C@H](c3nc4cc(F)cnc4[nH]3)C2)cc1 [Example 31],IC50,[1],132 nM
same,half-life at 1 µM,[2],16 min
